In patent publication US20230219931A1, “FUSED HETEROARYL HYDROXAMATES AS STING AGONISTS” (BiSiChem Co., Ltd., priority 2022, published 2023):
Where a name gives a salt, the structure may show the parent alone.

Tested on: ISG reporter activity in THP1-Dual cell
Experiment: ISG reporter assay
Assay type: cell-based
Conditions: Homo sapiens, compounds incubated with cells for 24 hours, QUANTI-Blue, absorbance at 655 nm
Procedure: [Worded in the source for another cell line; this cell line is reported under the same test.] THP1-Blue cells (cat. no. thp-isg) were purchased from InvivoGen (Sandiago, USA). Penicillin—streptomycin (cat. no. L0022-100), Fetal Bovine Serum (FBS) (cat. no. S1480-500) and Roswell Park Memorial Institute (RPMI) 1640 media (cat. L0498-500) were purchased from biowest (Nuaille, France). Zeocin (cat. no. ant-zn-OS) and Normocin (cat. no. ant-nr-1) were purchased from InvivoGen (Sandiago, USA). QUANTI-Blue™ (cat. no. rep-qbs) was purchased from InvivoGen. THP1-Blue cells were cultured in RPMI 1640 medium with 10% heat-inactivated FBS, 100 μg/ml Normocin, 100 μg/ml Zeocin and 100 U/ml-100 μg/ml penicillin-streptomycin. The cells were incubated at 37° C. in a humidified atmosphere of 5% CO2.
THP1-Blue cells were seeded at 5×10^4 cells/well (90 μl/well). 10 μl of compounds were added to the cells and incubated for 24 hours. 20 μl of cell culture supernatant was dispensed new 96-well plate (cat. no. 30096) with 180 μl of QUANTI-Blue™ solution and incubated for 15 minutes at 37° C. The absorbance was measured by Varioskan Lux (Thermofisher Scientific, USA) at 655 nm.

With CCn1nc(C)cc1C(=O)Nc1nc2cc(C(N)=O)cc(OC)c2n1C/C=C/Cn1c(NC(=O)c2cc(C)nn2CC)nc2cc(C(N)=O)cc(OCC#CC3CCN(S(=O)(=O)N4CCNCC4)CC3)c21 [Example 29, (E)-1-(4-(5-carbamoyl-2-(1-ethyl-3-methyl-1H-pyrazole-5-carboxamido)-7-((3-(1-(piperazin-1-ylsulfonyl)piperidin-4-yl)prop-2-yn-1-yl)oxy)-1H-benzo[d]imidazol-1-yl)but-2-en-1-yl)-2-(1-ethyl-3-methyl-1H-pyrazole-5-carboxamido)-7-methoxy-1H-benzo[d]imidazole-5-carboxamide hydrochloride] the EC50 was under 50 nM.
For CCn1nc(C)cc1C(=O)Nc1nc2cc(C(N)=O)cc(OC)c2n1C/C=C/Cn1c(NC(=O)c2cc(C)nn2CC)nc2cc(C(N)=O)cc(OCC#CC3CN(C(=O)OC(C)(C)C)C3)c21 [Example 30, tert-butyl (E)-3-(3-((5-carbamoyl-1-(4-(5-carbamoyl-2-(1-ethyl-3-methyl-1H-pyrazole-5-carboxamido)-7-methoxy-1H-benzo[d]imidazol-1-yl)but-2-en-1-yl)-2-(1-ethyl-3-methyl-1H-pyrazole-5-carboxamido)-1H-benzo[d]imidazol-7-yl)oxy)prop-1-yn-1-yl)azetidine-1-carboxylate], the EC50 was under 50 nM.
Compound CCn1nc(C)cc1C(=O)Nc1nc2cc(C(N)=O)cc(OC)c2n1C/C=C/Cn1c(NC(=O)c2cc(C)nn2CC)nc2cc(C(N)=O)cc(OCC#CC3CCN(C(=O)OC(C)(C)C)C3)c21 (stereo not drawn) [Example 31, tert-butyl (E)-3-(3-((5-carbamoyl-1-(4-(5-carbamoyl-2-(1-ethyl-3-methyl-1H-pyrazole-5-carboxamido)-7-methoxy-1H-benzo[d]imidazol-1-yl)but-2-en-1-yl)-2-(1-ethyl-3-methyl-1H-pyrazole-5-carboxamido)-1H-benzo[d]imidazol-7-yl)oxy)prop-1-yn-1-yl)pyrrolidine-1-carboxylate] has an EC50 of under 50 nM.
CCn1nc(C)cc1C(=O)Nc1nc2cc(C(N)=O)cc(OC)c2n1C/C=C/Cn1c(NC(=O)c2cc(C)nn2CC)nc2cc(C(N)=O)cc(OCC#CC3CCCN(C(=O)OC(C)(C)C)C3)c21 (stereo not drawn) [Example 32, tert-butyl (E)-3-(3-((5-carbamoyl-1-(4-(5-carbamoyl-2-(1-ethyl-3-methyl-1H-pyrazole-5-carboxamido)-7-methoxy-1H-benzo[d]imidazol-1-yl)but-2-en-1-yl)-2-(1-ethyl-3-methyl-1H-pyrazole-5-carboxamido)-1H-benzo[d]imidazol-7-yl)oxy)prop-1-yn-1-yl)piperidine-1-carboxylate] showed an EC50 of under 50 nM.
Work on CCn1nc(C)cc1C(=O)Nc1nc2cc(C(=O)NOC)cc(OC)c2n1C/C=C/Cn1c(NC(=O)c2cc(C)nn2CC)nc2cc(C(N)=O)cc(OCC#CC(C)(C)O)c21 [Example 33, (E)-1-(4-(5-carbamoyl-2-(1-ethyl-3-methyl-1H-pyrazole-5-carboxamido)-7-((4-hydroxy-4-methylpent-2-yn-1-yl)oxy)-1H-benzo[d]imidazol-1-yl)but-2-en-1-yl)-2-(1-ethyl-3-methyl-1H-pyrazole-5-carboxamido)-N,7-dimethoxy-1H-benzo[d]imidazole-5-carboxamide] yielded an EC50 of over 500 nM.
Compound CCn1nc(C)cc1C(=O)Nc1nc2cc(C(N)=O)cc(OC)c2n1C/C=C/Cn1c(NC(=O)c2cc(C)nn2CC)nc2cc(C(N)=O)cc(OCC#CC3CCN(C(=O)OCCN(C)C)CC3)c21 [Example 34, 2-(dimethylamino)ethyl (E)-4-(3-((5-carbamoyl-1-(4-(5-carbamoyl-2-(1-ethyl-3-methyl-1H-pyrazole-5-carboxamido)-7-methoxy-1H-benzo[d]imidazol-1-yl)but-2-en-1-yl)-2-(1-ethyl-3-methyl-1H-pyrazole-5-carboxamido)-1H-benzo[d]imidazol-7-yl)oxy)prop-1-yn-1-yl)piperidine-1-carboxylate] has an EC50 of under 50 nM.
CCn1nc(C)cc1C(=O)Nc1nc2cc(C(=O)NOC)cc(OC)c2n1C/C=C/Cn1c(NC(=O)c2cc(C)nn2CC)nc2cc(C(N)=O)cc(OCC#CCN3CCN(C(=O)OC(C)(C)C)CC3)c21 [Example 36, tert-butyl (E)-4-(4-((5-carbamoyl-2-(1-ethyl-3-methyl-1H-pyrazole-5-carboxamido)-1-(4-(2-(1-ethyl-3-methyl-1H-pyrazole-5-carboxamido)-7-methoxy-5-(methoxycarbamoyl)-1H-benzo[d]imidazol-1-yl)but-2-en-1-yl)-1H-benzo[d]imidazol-7-yl)oxy)but-2-yn-1-yl)piperazine-1-carboxylate] gave an EC50 of 50 to 500 nM.
Compound CCn1nc(C)cc1C(=O)Nc1nc2cc(C(N)=O)cc(OC)c2n1C/C=C/Cn1c(NC(=O)c2cc(C)nn2CC)nc2cc(C(N)=O)cc(OCC#CCN3CCN(C(=O)OC(C)(C)C)CC3)c21 [Example 37] has an EC50 of under 50 nM.
With CCn1nc(C)cc1C(=O)Nc1nc2cc(C(=O)NOC)cc(OC)c2n1C/C=C/Cn1c(NC(=O)c2cc(C)nn2CC)nc2cc(C(N)=O)cc(OCC#CCN3CCN(C(=O)C(C)C)CC3)c21 [Example 39, (E)-1-(4-(5-carbamoyl-2-(1-ethyl-3-methyl-1H-pyrazole-5-carboxamido)-7-((4-(4-isobutyrylpiperazin-1-yl)but-2-yn-1-yl)oxy)-1H-benzo[d]imidazol-1-yl)but-2-en-1-yl)-2-(1-ethyl-3-methyl-1H-pyrazole-5-carboxamido)-N,7-dimethoxy-1H-benzo[d]imidazole-5-carboxamide] the EC50 was over 500 nM.
CCn1nc(C)cc1C(=O)Nc1nc2cc(C(=O)NOC)cc(OC)c2n1C/C=C/Cn1c(NC(=O)c2cc(C)nn2CC)nc2cc(C(N)=O)cc(OCC#CCN3CCOCC3)c21 [Example 40, (E)-1-(4-(5-carbamoyl-2-(1-ethyl-3-methyl-1H-pyrazole-5-carboxamido)-7-((4-morpholinobut-2-yn-1-yl)oxy)-1H-benzo[d]imidazol-1-yl)but-2-en-1-yl)-2-(1-ethyl-3-methyl-1H-pyrazole-5-carboxamido)-N,7-dimethoxy-1H-benzo[d]imidazole-5-carboxamide] was tested, and the EC50 was 50 to 500 nM.
Compound CCn1nc(C)cc1C(=O)Nc1nc2cc(C(N)=O)cc(OC)c2n1C/C=C/Cn1c(NC(=O)c2cc(C)nn2CC)nc2cc(C(N)=O)cc(OCC#CC(C)(C)N3CCN(C(=O)OC(C)(C)C)CC3)c21 [Example 41, tert-butyl (E)-4-(5-((5-carbamoyl-1-(4-(5-carbamoyl-2-(1-ethyl-3-methyl-1H-pyrazole-5-carboxamido)-7-methoxy-1H-benzo[d]imidazol-1-yl)but-2-en-1-yl)-2-(1-ethyl-3-methyl-1H-pyrazole-5-carboxamido)-1H-benzo[d]imidazol-7-yl)oxy)-2-methylpent-3-yn-2-yl)piperazine-1-carboxylate] has an EC50 of under 50 nM.
Work on CCn1nc(C)cc1C(=O)Nc1nc2cc(C(N)=O)cc(OC)c2n1C/C=C/Cn1c(NC(=O)c2cc(C)nn2CC)nc2cc(C(N)=O)cc(OCC#CCC3CCN(C(=O)OC(C)(C)C)CC3)c21 [Example 42, tert-butyl (E)-4-(4-((5-carbamoyl-1-(4-(5-carbamoyl-2-(1-ethyl-3-methyl-1H-pyrazole-5-carboxamido)-7-methoxy-1H-benzo[d]imidazol-1-yl)but-2-en-1-yl)-2-(1-ethyl-3-methyl-1H-pyrazole-5-carboxamido)-1H-benzo[d]imidazol-7-yl)oxy)but-2-yn-1-yl)piperidine-1-carboxylate] yielded an EC50 of under 50 nM.
CCn1nc(C)cc1C(=O)Nc1nc2cc(C(N)=O)cc(OC)c2n1C/C=C/Cn1c(NC(=O)c2cc(C)nn2CC)nc2cc(C(N)=O)cc(OCC#CCC3CCNCC3)c21 [Example 43, (E)-1-(4-(5-carbamoyl-2-(1-ethyl-3-methyl-1H-pyrazole-5-carboxamido)-7-((4-(piperidin-4-yl)but-2-yn-1-yl)oxy)-1H-benzo[d]imidazol-1-yl)but-2-en-1-yl)-2-(1-ethyl-3-methyl-1H-pyrazole-5-carboxamido)-7-methoxy-1H-benzo[d]imidazole-5-carboxamide hydrochloride] showed an EC50 of 50 to 500 nM.
CCn1nc(C)cc1C(=O)Nc1nc2cc(C(N)=O)cc(OC)c2n1C/C=C/Cn1c(NC(=O)c2cc(C)nn2CC)nc2cc(C(N)=O)cc(OCC#CCC3CCN(C(=O)OC4CC4)CC3)c21 [Example 44, cyclopropyl (E)-4-(4-((5-carbamoyl-1-(4-(5-carbamoyl-2-(1-ethyl-3-methyl-1H-pyrazole-5-carboxamido)-7-methoxy-1H-benzo[d]imidazol-1-yl)but-2-en-1-yl)-2-(1-ethyl-3-methyl-1H-pyrazole-5-carboxamido)-1H-benzo[d]imidazol-7-yl)oxy)but-2-yn-1-yl)piperidine-1-carboxylate] was tested, and the EC50 was under 50 nM.
In the case of CCn1nc(C)cc1C(=O)Nc1nc2cc(C(N)=O)cc(OC)c2n1C/C=C/Cn1c(NC(=O)c2cc(C)nn2CC)nc2cc(C(N)=O)cc(OCC#CCC3CCN(C(=O)OCCO)CC3)c21 [Example 45, 2-hydroxyethyl (E)-4-(4-((5-carbamoyl-1-(4-(5-carbamoyl-2-(1-ethyl-3-methyl-1H-pyrazole-5-carboxamido)-7-methoxy-1H-benzo[d]imidazol-1-yl)but-2-en-1-yl)-2-(1-ethyl-3-methyl-1H-pyrazole-5-carboxamido)-1H-benzo[d]imidazol-7-yl)oxy)but-2-yn-1-yl)piperidine-1-carboxylate], the EC50 is reported as under 50 nM.
